Source: patent US20260210948A1, “FLUORESCENCE-BASED ASSAY FOR IDENTIFICATION OF PROTAC LIGANDS FOR HECT-TYPE E3 LIGASES” (Purdue Research Foundation, priority 2022, published 2026)

Legend:
Rsp5 [1] = test: Iodoacetamide inhibition assay, fluorescence polarization; assay type: biochemical, yeast (S. cerevisiae); conditions: Rsp5 incubated with iodoacetamide 12.5-500 μM for 1 hour
Protocol: Inhibition assays were conducted by first incubating 0.5 μm Rsp5/NEDD4L-Rsp5HYBRID with varying concentration of iodoacetamide (12.5-500 μM) for 1 hour in the reaction buffer (50 mM Tris pH 7.4, 100 mM NaCl, 1 mg/ml BSA). Fluorescence polarization was then measured after adding 0.25 μm E1 enzyme, 0.5 μm UbcH7, 100 μm Ub and 10 μm fluorescein-labeled peptide to the reaction well. The Z-factor (Z′) for the assay was calculated using eight replicates of the positive control (no iodoacetamide addition) and negative control (500 μM iodoacetamide addition). The initial slopes of each of the 16 reactions were calculated, followed by calculation of the positive control and negative control means (μ_+ and μ_−) and standard deviations (σ_+ and σ_−). The mean and standard deviation values were then used to calculate the Z-factor using the following formula (II):
(§1) All assays were carried out at least in triplicate, at a final reaction volume of 100 μL, and utilizing Grenier 96 well plates (Product no. 655097). Fluorescence polarization was measured using a Synergy H4 Plate Reader (BioTek) using 485 nm excitation and 528 nm emission filters.
An iodoacetamide inhibition assay to mimic peptide displacement conditions was performed to test robustness and reproducibility. […]

Rsp5 [2] = test: Peptide-ubiquitination fluorescence polarization assay with Rsp5; assay type: biochemical, yeast (S. cerevisiae); conditions: Uba1, UbcH7, Rsp5 lacking the C2 domain, ATP and Ub; λex=485 nm; λem=528 nm
Protocol: Assays were performed by mixing […] enzyme, 0.5 μm UbcH7, 0.5 μm Rsp5/NEDD4L-Rsp5HYBRID, 100 μM Ub and 10 μM fluorescein-labeled peptide in (50 mM Tris pH 7.4, 100 mM NaCl, 1 mg/ml BSA) buffer. Reaction mixtures were left to equilibrate at room temperature for 10 minutes before taking measurements. Reactions were then started by adding 100 mM ATP. A sample of this reaction was also utilized for SDS-PAGE gel electrophoresis.
as §1
Target sequence in this assay (P39940 229-809 limits assumed): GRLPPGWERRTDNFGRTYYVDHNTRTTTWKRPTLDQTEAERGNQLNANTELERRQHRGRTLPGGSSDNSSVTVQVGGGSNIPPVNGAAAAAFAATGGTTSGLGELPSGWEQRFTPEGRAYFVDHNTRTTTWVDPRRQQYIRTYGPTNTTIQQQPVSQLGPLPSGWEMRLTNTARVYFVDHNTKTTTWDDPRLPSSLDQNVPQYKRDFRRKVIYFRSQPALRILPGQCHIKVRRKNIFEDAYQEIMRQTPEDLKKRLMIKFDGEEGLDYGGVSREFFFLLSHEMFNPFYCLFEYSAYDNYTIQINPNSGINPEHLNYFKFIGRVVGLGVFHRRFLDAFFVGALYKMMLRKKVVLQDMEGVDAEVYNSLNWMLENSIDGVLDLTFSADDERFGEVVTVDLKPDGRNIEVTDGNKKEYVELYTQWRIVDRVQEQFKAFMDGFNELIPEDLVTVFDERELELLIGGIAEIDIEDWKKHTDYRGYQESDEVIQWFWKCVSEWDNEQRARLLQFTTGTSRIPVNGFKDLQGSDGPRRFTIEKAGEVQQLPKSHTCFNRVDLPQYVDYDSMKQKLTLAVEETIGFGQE
A PPxY peptide based on a yeast vesicular snare protein (Sna4) containing the PPxY motif was designed, synthesized, and labeled with fluorescein at the N-terminus. An assay utilizing Uba1 (E1 ubiquitin (Ub)-activating enzyme), UbcH7 (E2 Ub-conjugating enzyme) and Rsp5 ([…] E3 Ub-ligase), which lacked the C2 domain to simplify in vitro screening, in the presence of adenosine triphosphate (ATP) and Ub was performed. Fluorescence polarization (FP) was recorded to monitor ubiquitination of the peptide. […] Ubiquitination of the PPxY peptide was confirmed by SDS-PAGE. […] No fluorescence polarization occurred in the absence of UbcH7, Rsp5, Ub, or ATP.

Compound | rate of peptide ubiquitination (initial slope) (Rsp5 [1]) | fluorescence polarization (ubiquitination of the peptide) (Rsp5 [2])
NC(=O)CI [Iodoacetamide, iodoacetamide] | decreasing the rate of peptide ubiquitination | –
NKQSLVESPPPY [PPxY peptide, peptide mimicking residues 128-138 of yeast Sna4 with PPPY motif, fluorescein labeled on the N-terminus] | – | increase in fluorescence polarization
